Experimental data reported in patent publication US5153318A, “3'-Azido nucleoside compound” (Burroughs Wellcome Co., priority 1989, dated 1992).

Columns and labels:
[1] = tested on: HIV-1 (strain 3B); experiment: Anti-HIV-1 activity, reversal of cytopathic effect in MT4 cells (propidium iodide dye uptake); assay type: cell-based; details: Human immunodeficiency virus 1, MT4, 120 h, 100XTCID50, five days, protection of 50% of the cells from cell killing
Method: i) Anti-HIV activity was determined by measuring the ability of the compound to reverse the cytopathic effect of HIV infection. This was determined by a quantitative assessment of cell growth monitored at the fifth day post infection by a propidium iodide dye uptake test. MT4 cells were incubated with 100XTCID50 of HIV-1 (strain 3B) or HIV-2 (Zagury strain) for one hour prior to addition of compound in six different concentrations varying from 2 to 200 μM. The cells were allowed to incubate for five days at 37° C. On day five, NP-40, a detergent, was added to a final concentration of 0.5% immediately prior to analysis. Cell number was determined using a method which measures the fluorescence of a dye (propidium iodide) which binds to DNA. Since the amount of DNA is directly proportional to cell number, this fluorescence assay is an indication of cell growth. While uninfected cells double in cell number several times during the five days duration of the assay. HIV-infected cells grow very little, if at all.

[2] = tested on: human hepatitis B virus; experiment: Anti-HBV activity in human HBV producer cell line of HepG2, 2.2.15; assay type: cell-based; details: HepG2 2.2.15 cells, ten days; criterion at least 100-fold reduction of Dane particles and similar decrease of intracellular replicative intermediates
Method: ii) The human HBV producer cell line of HepG2, 2.2.15, described and characterized by Sells et al., PNAS 84:1005, 1987 and J. Virol. […] This cell line was utilized in vitro to identify compounds with anti-HBV activity.
To test compounds for antiviral activity, monolayer cultures were treated with compound. […], for ten days. Supernatant media containing extracellular virion DNA (Dane particles) were harvested on days three, six and ten, treated with proteinase K (1 mg/mL) and sodium dodecyl sulfate (1%), and incubated at 50° C. for one hour. DNA was extracted with equal volumes of phenol followed by chloroform and then precipitated by ammonium acetate and propanol. […] After precipitation by ammonium acetate and propanol, the intracellular DNA precipitate was dissolved, cut by restriction endonuclease, Hind III, applied to agarose gel and then treated as described by Southern to determine the quantity of replicative intermediate forms. The antiviral effect of the drug was determined by measuring at least a 100-fold reduction of the amount of Dane particles extruded into the culture medium and a similar decrease in the intracellular replicative intermediates.

| Structure (SMILES) | IC50 [1] | inhibition of human hepatitis B virus [2] |
| --- | --- | --- |
| [N-]=[N+]=N[C@H]1C[C@H](n2cnc3c(OCc4ccccc4)nc(N)nc32)O[C@@H]1CO [Example 6b, 2-Amino-9-(3-azido-2,3-dideoxy-β-D-erythro-pentofuranosyl)-6-benzyloxy-9H-purine] | 8.9 µM |  |
| CN(C)c1nc(N)nc2c1ncn2[C@H]1C[C@H](N=[N+]=[N-])[C@@H](CO)O1 [Example 7b, 2-Amino-9-(3-azido-2,3-dideoxy-β-D-erythro-pentofuranosyl)-6-dimethylamino-9H-purine] |  | strong inhibition |
